Measured values reported in patent US11691992B2 (Anacor Pharmaceuticals, Inc., priority 2017, dated 2023).

Experiments:
[1] = test system: IL3000 T. congolense (drug sensitive) strain; test: In vitro Alamar Blue 72 h drug sensitivity assay for T. congolense; assay type: cell-based; settings: Trypanosoma congolense; bloodstream form, 69 h + 3 h resazurin, 34° C.; classes A-C; read-out: IC50: I Org. Growth T. congolense IL-3000, 3 d
How it was run: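 Bloodstream-form trypanosomes in HMI medium with 20% bovine serum, exposed to compound for 69 h at 34 °C, 5% CO2, then resazurin for 3 h more. Fluorescence read at 536/588 nm. IC50 from 11-point sigmoidal dose-response curves, at least three independent runs.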

[2] = test system: promastigote forms of L. major; test: Leishmania major promastigote growth inhibition assay (Alamar Blue); assay type: cell-based; settings: promastigotes, 44 hours + 4 hours Alamar Blue, read-out: IC50: I Org. promastigote Growth L. major, 2 d
How it was run: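 Early-log L. major promastigotes (5,000/well) in Schneider's medium with 20% FBS incubated with compound 44 h at 28° C; drug solutions in DMSO were 10,000 or 1,000 ng/ml before dispensing. Alamar Blue added 4 h, fluorescence at 560/590 nm gives percent growth inhibition; IC50 determined for compounds inhibiting ≥50%.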

Row | SMILES | IC50 [1] [nM] | IC50 [2] [nM]
1 | Cc1c(C(=O)Nc2ccc3c(c2)B(O)OC32CCC2)nnn1-c1cccnc1 [Example 17, N-(1-hydroxy-1H-spiro[benzo[c][1,2]oxaborole-3,1′-cyclobutan]-6-yl)-5-methyl-1-(pyridin-3-yl)-1H-1,2,3-triazole-4-carboxamide] | 310 to 100000 | 2510 to 20000
2 | CC1OB(O)c2cc(NC(=O)c3cn(-c4ccc(F)cc4)nn3)ccc21 (centres unmarked) [Example 5] | 100 to 300 | 600 to 2500
3 | Cc1c(C(=O)Nc2ccc3c(c2)B(O)OC3)nnn1-c1cccnc1 [Example 93, N-(1-hydroxy-1,3-dihydrobenzo[c][1,2]oxaborol-6-yl)-5-methyl-1-(pyridin-3-yl)-1H-1,2,3-triazole-4-carboxamide] | 100 to 300 | 2510 to 20000
4 | Cc1ccc(-n2cc(C(=O)Nc3ccc4c(c3)B(O)OC43CCC3)nn2)cc1 [Example 15] | 100 to 300 | 2510 to 20000
5 | CC1OB(O)c2cc(NC(=O)c3cn(-c4ccccn4)nn3)ccc21 (centres unmarked) [Example 23, N-(1-hydroxy-3-methyl-1,3-dihydrobenzo[c][1,2]oxaborol-6-yl)-1-(pyridin-2-yl)-1H-1,2,3-triazole-4-carboxamide] | < 100 | < 600
6 | Cc1ccc(-n2cc(C(=O)Nc3ccc4c(c3)B(O)OC4C)nn2)cc1 (centres unmarked) [Example 18, N-(1-hydroxy-3-methyl-1,3-dihydrobenzo[c][1,2]oxaborol-6-yl)-1-(p-tolyl)-1H-1,2,3-triazole-4-carboxamide] | < 100 | 600 to 2500
7 | COc1ccc(-n2cc(C(=O)Nc3ccc4c(c3)B(O)OC4C)nn2)cc1 (centres unmarked) [Example 22, N-(1-hydroxy-3-methyl-1,3-dihydrobenzo[c][1,2]oxaborol-6-yl)-1-(4-methoxyphenyl)-1H-1,2,3-triazole-4-carboxamide] | 100 to 300 | < 600
